Experimental data published in article PMC5641083, “Blockage of FOXP3 transcription factor dimerization and FOXP3/AML1 interaction inhibits T regulatory cell activity: sequence optimization of a peptide inhibitor” (Oncotarget, 2017).
Where a SMILES comes first, the peptide text is derived from it. [ ]: non-standard residue; d: D form.

Key:
[1] = Metabolic stability in human liver microsomes; type: in vitro ADME; details: 1 μM, estimated by first order kinetics
Description: (§1) Metabolic stability was measured by Wuxi AppTech (Shanghai, China). Briefly, peptides (1 μM, 5% MeOH in potassium phosphate buffer) were incubated with human (catalogue no. 452161 from BD Gentest) and mouse (catalogue no. M1000, Xenotech) liver microsomes at 37°C for 10 min. Liver microsomes were at a final assay concentration of 0.7 mg protein/mL. The reaction was started by the addition of 90 μL of NADP cofactor solution and stopped by the addition of 300 μL of stop solution (acetonitrile at 4°C, including 100 ng/mL tolbutamide as an internal standard) after 20 min of incubation. The samples were shaken for 5 min and then centrifuged for 20 min at 1500 g. A 100 μL aliquot of the supernatant was transferred to eight new 96-well plates with 300 μL of HPLC water and centrifuged at 1500 g for LC-MS/MS analysis (Shimadzu LC 10-AD−API 4000). An injection volume of 10 μL was added to a Phenomenex Synergi C18 column eluting with formic acid in water or acetonitrile at a flow rate of 800 μL/min. The percent loss of parent compound was calculated from the peak area ratio of the analyte/internal standard. Compounds and positive controls were tested in duplicate.

[2] = Metabolic stability in mouse liver microsomes; type: in vitro ADME; details: 1 μM, estimated by first order kinetics
Description: as §1

[3] = test system: CT26 tumor cells; experiment: AH1 vaccination and CT26 tumor challenge; type: in vivo, BALB/c mice; details: AH1 in IFA, peptide 10 nanomol/mice/day i.p. 10 days, challenge 10^6 CT26 cells s.c. day 10
Description: In those experiments, BALB/c mice were immunized with peptide AH1 emulsified in IFA and treated daily with saline or with 50 nanomol/mice/day of peptide P60 i.p. from day 0 to day 9 after immunization. To study the efficacy of CM-1315, our optimized version of P60, mice immunized with AH1 were treated with 10 nanomol/mice/day of P60 or CM-1315 and challenged at day 10 by s.c. injection with 10^6 CT26 tumor cells (instead of 5 × 10^5 cells used in our previous study). As control, groups of mice were injected with AH1 alone or left untreated.
For tumor rejection experiments, Hepa-129 cells (10^6 cells/mouse), were injected subcutaneously (sc) in C3H/HeN mice (n = 6). Ten days later, when the tumor reached 5 mm in diameter, mice were randomly divided into different experimental groups. A group of mice were treated i.p. with anti-PD1 antibodies (50 μg/mouse). Antibody administration was repeated one week after this first administration. A group of mice treated with anti-PD1 also received the cyclic peptide CM-1215 from days 10 to 20 (50 μg/mice/day). Tumor size, presented as the average of two perpendicular diameters (millimetres), was measured at regular intervals. Mice were sacrificed when the mean tumor diameter was greater than 20 mm. […] Tumor size was monitored twice a week with a calliper and it was expressed according to the formula V = (length × width^2)/2. […]

[4] = test system: CD4+CD25-ve splenocytes; experiment: Effector T cells alone stimulated with anti-CD3: proliferation, IL-2 and IFN-γ; type: cell-based; details: anti-CD3 stimulation, no Treg
Text: (§2) FOXP3 is critical for the development and function of Tregs, but also, FOXP3 can be transiently expressed in effector T cells after TCR stimulation leading to hyporesponsiveness of the effector T cell. […] We speculate that the Foxp3 inhibitory peptides may work at two levels: (i) reducing Treg function and (ii) releasing the brake of FOXP3 transient expression on effector T cells. Thus, we studied the effect of CM-1315 in T cell proliferation and IL-2 and IFN-γ production in effector T cells in response to anti-CD3 stimulation. The original P60, the optimized peptide CM-1315 and a control peptide were tested. […] We also studied the effect of the peptides directly in Tregs. Thus, freshly isolated Treg cells were pre-treated with the peptides for 24 h, and after extensive washing, they were used in conventional Treg suppression assay in coculture with effector T cells and anti-CD3 stimulation.
(§3) Supplementary Figure 4: Effect of Foxp3 inhibitory peptides in effector T cells alone. […] T cell proliferation (A) and IL-2 and IFN-γ (B and C) production in response to anti-CD3 stimulation was measured by 3H-thymidine incorporation and by ELISA respectively.
(§4) Supplementary Figure 5: Effect of FOXP3 inhibitory peptides in Treg cells. […] T cell proliferation was measured by 3H-thymidine incorporation assay. […]

[5] = test system: Treg cells; experiment: Treg pre-treated with peptide, then Treg suppression assay; type: cell-based; details: Treg incubated with peptide at 20 μM for 24 hours, washed
Text: as §2, §3, §4

[6] = test system: AH1-specific IFN-γ producing cells; experiment: AH1 immunization in CD25+ depleted mice, IFN-γ ELISPOT; type: in vivo; details: mice depleted of CD25+ T cells, CM-1315 day 1 to day 7
Text: We also studied the effect of CM-1315 peptide in vivo to improve the immune response after immunization with AH1 peptide in naïve mice and in mice depleted of CD25+ T cells. In this experiment, depletion of CD25+ T cells improved the number of AH1-specific IFN-γ producing cells.
Supplementary Figure 6: In vivo the effect of CM-1315 peptide to improve the immunogenicity of AH1 peptide vaccine.
AH1 peptide, encompassing a cytotoxic T cell epitope for H-2Ld MHC class I molecule, was emulsified in Incomplete Freund adjuvant as previously described and used to immunize groups of naïve mice and in mice depleted of CD25+ T cells (n = 4). A group of CD25 depleted mice was immunized with AH1 and treated with CM-1315 peptide from day 1 to day 7 after immunization. Ten days after, immune response against AH1 was measured by ELISPOT assay to quantify the number of IFN-γ producing cells.
(1 picture or pasted object on this page, not shown here)

CSCC[C@@H]1NC(=O)[C@H](C)NC(=O)[C@H](Cc2ccccc2)NC(=O)[C@H](Cc2ccccc2)NC(=O)[C@@H]2CCCN2C(=O)[C@H](Cc2c[nH]c3ccccc23)NC(=O)[C@H](CCSC)NC(=O)[C@H](CCCCN)NC(=O)[C@H](CCCNC(=N)N)NC(=O)[C@H](Cc2ccccc2)NC(=O)[C@H](C)NC(=O)[C@H](CCC(N)=O)NC(=O)[C@H](Cc2ccccc2)NC(=O)[C@@H](C)NC(=O)[C@H](CCCNC(=N)N)NC1=O [CM-1315] (cyclo(R[dA]FQAFRKMWPFFAM))
half-life [1]: ~1 h | half-life [2]: ~1 h | Protection against CT26 tumor challenge (in words) [3]: remained protected against challenge with CT26 tumor cells | T cell proliferation and IL-2, IFN-γ production of effector T cells (in words) [4]: more active than P60 | Inhibition of suppressive activity of pre-treated Treg (in words) [5]: able to inhibit significantly the suppressive activity of Treg | Number of AH1-specific IFN-γ producing cells (in words) [6]: significantly improved this response
